Results published in ChEMBL document CHEMBL4819035, “C-2-Linked Dimeric Strychnine Analogues as Bivalent Ligands Targeting Glycine Receptors” (J Nat Prod, 2021).

Experiments:
[1] = molecular target: T1, Glycine receptor (alpha-1/beta) (Homo sapiens, UniProt P23415+P48167); test: Antagonist activity at human glycine receptor subunit alpha-1beta expressed in HEK293 cells assessed as reduction in glycine-induced currents by whole-cell patch-clamp assay; assay type: cell-based
[2] = molecular target: T2, Glycine receptor subunit alpha-1 (Homo sapiens, UniProt P23415); test: Antagonist activity at human glycine receptor subunit alpha-1 expressed in HEK293 cells assessed as reduction in glycine-induced currents by whole-cell patch-clamp assay; assay type: cell-based
T2 sequence (P23415 whole entry): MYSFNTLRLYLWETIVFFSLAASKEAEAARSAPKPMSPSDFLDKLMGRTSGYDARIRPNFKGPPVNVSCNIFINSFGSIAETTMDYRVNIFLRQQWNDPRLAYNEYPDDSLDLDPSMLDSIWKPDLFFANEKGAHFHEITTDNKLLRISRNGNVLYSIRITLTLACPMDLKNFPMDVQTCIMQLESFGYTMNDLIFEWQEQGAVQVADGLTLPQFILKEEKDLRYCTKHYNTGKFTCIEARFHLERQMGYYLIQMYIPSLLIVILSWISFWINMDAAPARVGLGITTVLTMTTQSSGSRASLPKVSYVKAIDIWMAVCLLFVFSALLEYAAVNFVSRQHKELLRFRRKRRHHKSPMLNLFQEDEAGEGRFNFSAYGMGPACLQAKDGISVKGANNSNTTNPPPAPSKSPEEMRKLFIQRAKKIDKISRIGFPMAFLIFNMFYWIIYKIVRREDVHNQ

[3] = molecular target: T1, Glycine receptor (alpha-1/beta); test: Antagonist activity at human glycine receptor subunit alpha-1beta expressed in human tsA201 cells assessed as reduction in glycine-induced response incubated for 30 mins by fluorescence-based FLIPR membrane potential blue assay; assay type: cell-based; details: read-out: IC50
[4] = molecular target: T2, Glycine receptor subunit alpha-1; test: Antagonist activity at human glycine receptor subunit alpha-1 expressed in human tsA201 cells assessed as reduction in glycine-induced response incubated for 30 mins by fluorescence-based FLIPR membrane potential blue assay; assay type: cell-based; details: for IC50: read-out: IC50
[5] = molecular target: T2, Glycine receptor subunit alpha-1; test: Antagonist activity at human glycine receptor subunit alpha-1 assessed as inhibition of glycine-induced current measured at the later state of compound application by patch-clamp assay
[6] = molecular target: T2, Glycine receptor subunit alpha-1; test: Displacement of [3H]strychnine from human glycine receptor subunit alpha-1 expressed in HEK293 cell membranes preincubated for 30 mins followed by [3H]strychnine addition and measured after 30 mins by liquid scintillation counting method; set-up: species or system Membrane
[7] = molecular target: T2, Glycine receptor subunit alpha-1; test: Antagonist activity at human glycine receptor subunit alpha-1 assessed as inhibition of glycine-induced current measured at the onset of compound application by patch-clamp assay

T1 sequence (P48167 whole entry, one chain of several): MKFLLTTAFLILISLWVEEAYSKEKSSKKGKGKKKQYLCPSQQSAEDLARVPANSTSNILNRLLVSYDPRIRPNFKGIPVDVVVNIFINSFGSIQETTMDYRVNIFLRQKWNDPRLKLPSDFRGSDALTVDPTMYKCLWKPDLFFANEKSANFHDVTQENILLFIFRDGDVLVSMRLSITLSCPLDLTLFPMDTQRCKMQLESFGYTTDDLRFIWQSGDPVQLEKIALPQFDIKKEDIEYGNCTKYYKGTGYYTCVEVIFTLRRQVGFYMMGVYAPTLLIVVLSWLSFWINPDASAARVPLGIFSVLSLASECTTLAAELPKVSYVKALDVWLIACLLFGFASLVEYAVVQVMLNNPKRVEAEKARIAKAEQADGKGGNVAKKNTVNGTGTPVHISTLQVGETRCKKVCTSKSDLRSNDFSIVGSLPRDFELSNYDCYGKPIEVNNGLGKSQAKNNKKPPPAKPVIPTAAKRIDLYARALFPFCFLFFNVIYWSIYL

O=C(CCCCCCCCC(=O)Nc1ccc2c(c1)[C@@]13CCN4CC5=CCO[C@H]6CC(=O)N2[C@H]1[C@H]6[C@H]5C[C@H]43)Nc1ccc2c(c1)[C@@]13CCN4CC5=CCO[C@H]6CC(=O)N2[C@H]1[C@H]6[C@H]5C[C@H]43
IC50 [1]: 1900 nM | IC50 [2]: 1500 nM | IC50 [3]: 10000 nM | IC50 [4]: 7200 nM

O=C(CCCCCCCCCCC(=O)Nc1ccc2c(c1)[C@@]13CCN4CC5=CCO[C@H]6CC(=O)N2[C@H]1[C@H]6[C@H]5C[C@H]43)Nc1ccc2c(c1)[C@@]13CCN4CC5=CCO[C@H]6CC(=O)N2[C@H]1[C@H]6[C@H]5C[C@H]43
IC50 [1]: 800 nM | IC50 [2]: 720 nM | IC50 [3]: 1800 nM | IC50 [4]: 1100 nM

O=C(CCOCCOCCOCCOCCOCCOCCOCCOCCOCCOCCOCCOCCC(=O)NCCCCCCCCCCC(=O)Nc1ccc2c(c1)[C@@]13CCN4CC5=CCO[C@H]6CC(=O)N2[C@H]1[C@H]6[C@H]5C[C@H]43)NCCCCCCCCCCC(=O)Nc1ccc2c(c1)[C@@]13CCN4CC5=CCO[C@H]6CC(=O)N2[C@H]1[C@H]6[C@H]5C[C@H]43
IC50 [5]: 67 nM | Ki [6]: 204 nM | IC50 [3]: 3900 nM | IC50 [4]: 10000 nM | IC50 [7]: 3310 nM

O=C(CCCCCCC(=O)Nc1ccc2c(c1)[C@@]13CCN4CC5=CCO[C@H]6CC(=O)N2[C@H]1[C@H]6[C@H]5C[C@H]43)Nc1ccc2c(c1)[C@@]13CCN4CC5=CCO[C@H]6CC(=O)N2[C@H]1[C@H]6[C@H]5C[C@H]43
IC50 [1]: 1300 nM | IC50 [2]: 1100 nM | IC50 [3]: 10000 nM | IC50 [4]: 6900 nM

O=C(CCOCCOCCOCCOCCOCCOCCOCCOCCOCCOCCOCCOCCC(=O)NCCCCC(=O)Nc1ccc2c(c1)[C@@]13CCN4CC5=CCO[C@H]6CC(=O)N2[C@H]1[C@H]6[C@H]5C[C@H]43)NCCCCC(=O)Nc1ccc2c(c1)[C@@]13CCN4CC5=CCO[C@H]6CC(=O)N2[C@H]1[C@H]6[C@H]5C[C@H]43
IC50 [5]: 55 nM | Ki [6]: 81 nM | IC50 [3]: 1800 nM | IC50 [4]: 4300 nM | IC50 [7]: 1340 nM

O=C1C[C@@H]2OCC=C3CN4CC[C@]56c7ccccc7N1[C@H]5[C@H]2[C@H]3C[C@H]46 [STRYCHNINE]
IC50 [1]: 60 nM | IC50 [5]: 27 nM | IC50 [2]: 50 nM | Ki [6]: 5 nM | IC50 ([3]; tsa201): 510 nM | pIC50 ([4]; tsa201): 6.82 | IC50 [7]: 134 nM
